The results in this text go back to patent US11845724B2, “USP30 inhibitors and uses thereof” (Vincere Biosciences, Inc., priority 2019, dated 2023).

Usually IC50 stands for the point on the concentration scale where inhibition reaches its midpoint.

Assay [1] concerns the target recombinant USP30 (amino acids 57-517 of the human sequence) (Homo sapiens (Human), UniProt Q70CQ3). Put plainly: In vitro USP30 biochemical assay (Ubiquitin-Rhodamine).
Protocol: In vitro biochemical assay to establish the potency of compounds for USP30 inhibition: a 384-well plate assay using a fluorophore tagged substrate of USP30 was used for in vitro screening of compounds. Each compound was tested at 10 different concentrations (0.5 to 10,000 nM) in duplicate wells. Compounds were pre-incubated at 25° C. for 30 min in an assay buffer consisting of 20 mM Tris/HCl, pH8.0, 1 mM GSH, 0.01% Triton X-100, 0.03% BGG and 1.5 nM recombinant USP30 (amino acids 57-517 of the human sequence with a C-terminal 6-His tag). Following the pre-incubation, Ubiquitin-Rhodamine substrate dissolved in the assay buffer was added at the final concentration of 25 nM to each well and plates were incubated at 25° C. for an additional 75 minutes. The reaction was stopped by adding 10 mM citric acid and fluorescence was read using excitation wavelength 485 nm, emission of 535 nm. Data were analyzed using Graph Pad Prism software with a four-parameter (floating slope) fit to log concentration data to determine IC50s.
Assay [2] relates to differentiated RenCell VM. Put plainly: In-cell Tom20 loss assay. The conditions noted are these: 20 h after compound addition. Format: cell-based. The procedure:
To evaluate Tom20 loss following treatment with compounds and/or antimycin/oligomycin, a96-well plate assay was performed on differentiated RenCell VM. These were seeded into laminin-coated 96-well plates at 5000 cells/well in normal growth medium (ReNcell NSC maintenance medium+20 ng/ml FDF-2 and 20 ng/ml EGF). After 3 days, growth medium was replaced with differentiation medium (ReNCell NSC medium+0.1 mM dibutyryl cAMP and 2 ng/ml GDNF). On days 1 and 4 following addition of differentiation medium, the media was removed and replaced with fresh differentiation medium. On the 7th day compounds or DMSO were added, and 1 hour later, some wells also received additions of oligomycin (1 uM and antimycin (1 uM). 20 h after compound addition, cells were fixed by adding formaldehyde to a final concentration of […], incubated 20 minutes at room temperature, then washed with PBS. Blocking buffer (3% bovine serum albumin, 2% fetal bovine serum, 0.2% Triton X100 in PBS) was added to all wells for two hours, then removed and replaced with blocking buffer containing antibody against Tom20 overnight. After washing with PBS, secondary antibody (Donkey anti-mouse conjugated to Cy3) was added along with DAPI to mark nuclei, and incubated two hours. After again washing with PBS, cells were imaged using GE INCell 6000 at 40× and quantified using HCA-based quantification algorithm of fluorescence density×area normalized to the number of nuclei.

For assay [3], the target named is T1, USP30 (Homo sapiens (Human), UniProt Q70CQ3). In words: Dundee MALDI-TOF mass spectrometry assay (IC50). Format: biochemical. As to conditions: USP30 25 ng/μl, K48-linked diubiquitin 5.6 μM. In a few lines: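 USP30 (25 ng/μl) preincubated with compound 5 min at RT in Tris/BSA/DTT buffer, then K48-linked diubiquitin (5.6 μM) added for 45 min at RT. Stopped with 2% TFA; cleavage quantified by MALDI-TOF mass spectrometry to give IC50.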

The target of assay [4] is T1, USP30. In words: Dundee MALDI-TOF mass spectrometry assay (% DUB activity remaining at 1 μM). The assay is classed as biochemical. As to conditions: % DUB activity remaining at compound concentration of 1 μM; avg; read-out: Dundee % Activity at 1 μM (avg in vitro MS assay). The procedure:
Compounds were tested in a MALDI-TOF assay based on the paper by Ritorto et al. (Ritorto et al. Screening of DUB activity and specificity by MALDI-TOF mass spectrometry. Nat. Commun. 5:4763).
USP30 (25 ng/μl) tested against K48-linked diubiquitin (5.6 μM). USP30 was diluted in a buffer containing 40 mM Tris, 0.01% BSA, 1 mM DTT and K48 in 40 mM Tris, 0.01% BSA.
The compounds were pre-incubated with the USP30 for 5 mins at room temp before the K48 dimer addition. The assay mixture was then incubated for 45 mins at room temp. The assay was stopped by the addition of TFA to a final concentration of 2% (v/v).
Acidified samples of the DUB assays were mixed with 0.5 mM 15N-ubiquitin and then with one part of 2% (v/v) TFA and one part of 2,5 DHAP matrix solution (7.6 mg of 2,5 DHAP in […] ethanol and […] of an aqueous 12 mg ml 1 diammonium hydrogen citrate). Then 250 nl of these solutions were spotted onto an MTP AnchorChip 1,536 TF and this is analysed on the Bruker rapifleX MALDI-TOF.
Table 22 presents the Dundee MALDI-TOF values expressed as % DUB activity remaining at a compound concentration of 1 μM.

The mark [5] stands for this setting: read-out: USP30 IC50 μM (avg), Ubiquitin-Rhodamine substrate 25 nM, 1.5 nM recombinant USP30.
[6] abbreviates: avg, read-out: Dundee IC50 μM (avg in vitro MS assay).
The mark [7] stands for this setting: USP30 IC50 μM (avg), Ubiquitin-Rhodamine substrate 25 nM, 1.5 nM recombinant USP30.

The structures appear in SMILES notation. “And” between values parts separate entries of the source, which are not always exact repeats. Identical values can stand only once. Like-named read-outs stand apart in the source and are kept apart here.

Sequence of recombinant USP30 (amino acids 57-517 of the human sequence) (Q70CQ3 57-517): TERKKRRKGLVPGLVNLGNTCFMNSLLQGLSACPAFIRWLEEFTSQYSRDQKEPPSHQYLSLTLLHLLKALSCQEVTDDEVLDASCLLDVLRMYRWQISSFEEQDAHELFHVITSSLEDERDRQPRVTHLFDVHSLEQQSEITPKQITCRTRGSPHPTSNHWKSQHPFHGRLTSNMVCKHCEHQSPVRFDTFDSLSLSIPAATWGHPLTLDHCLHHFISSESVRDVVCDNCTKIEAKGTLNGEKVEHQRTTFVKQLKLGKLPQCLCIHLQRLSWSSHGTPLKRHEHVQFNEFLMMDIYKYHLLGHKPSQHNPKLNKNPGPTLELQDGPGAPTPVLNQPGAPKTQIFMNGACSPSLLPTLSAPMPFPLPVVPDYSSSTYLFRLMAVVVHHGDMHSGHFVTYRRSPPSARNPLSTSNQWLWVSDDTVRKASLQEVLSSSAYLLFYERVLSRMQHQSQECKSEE
T1 sequence (Q70CQ3 whole entry): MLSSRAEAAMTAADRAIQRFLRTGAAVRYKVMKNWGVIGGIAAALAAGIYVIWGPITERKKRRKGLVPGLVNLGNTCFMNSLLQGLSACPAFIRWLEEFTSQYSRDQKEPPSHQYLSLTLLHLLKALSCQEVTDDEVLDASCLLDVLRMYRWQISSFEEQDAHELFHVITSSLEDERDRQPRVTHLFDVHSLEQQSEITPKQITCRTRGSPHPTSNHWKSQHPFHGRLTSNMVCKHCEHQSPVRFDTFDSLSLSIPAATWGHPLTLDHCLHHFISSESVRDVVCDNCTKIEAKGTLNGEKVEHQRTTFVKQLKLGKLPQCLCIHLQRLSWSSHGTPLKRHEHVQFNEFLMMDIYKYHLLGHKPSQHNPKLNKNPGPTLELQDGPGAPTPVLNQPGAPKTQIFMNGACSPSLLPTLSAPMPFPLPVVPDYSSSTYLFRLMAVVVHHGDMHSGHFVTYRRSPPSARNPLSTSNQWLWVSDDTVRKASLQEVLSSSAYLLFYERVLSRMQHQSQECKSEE

In the case of `O=C(N[C@@H](Cc1ccccc1)C(=O)Nc1ccc(S(=O)(=O)N[C@@H]2CCOC2)cc1)c1ccc(F)cc1` [Compound I-175, 4-fluoro-N-((S)-1-oxo-3-phenyl-1-(4-(N-((R)-tetrahydrofuran-3-yl)sulfamoyl)phenylamino)propan-2-yl)benzamide], the 50% inhibitory concentration (IC50) in assay [1] (setting [5]) is under 0.05 µM; in assay [2], at most 500 nM.

Consider `O=C(N[C@@H](Cc1ccccc1)C(=O)Nc1ccc(S(=O)(=O)NC23CC(C2)C3)nc1)c1ccc(F)cc1` [Compound I-104, (S)-N-(1-(6-(N-bicyclo[1.1.1]pentan-1-ylsulfamoyl)pyridin-3-ylamino)-1-oxo-3-phenylpropan-2-yl)-4-fluorobenzamide], for which the half-maximal inhibitory concentration (IC50) at USP30 [3] (setting [6]) was under 0.05 µM; in assay [1] (setting [7]), 0.05 to 1 µM; in assay [2], at most 500 nM.

Consider `O=C(N[C@@H](Cc1ccccc1)C(=O)Nc1ccc(S(=O)(=O)NC2CCOCC2)nc1)c1ccc(F)cc1` [Compound I-107, (S)-4-fluoro-N-(1-oxo-3-phenyl-1-(6-(N-(tetrahydro-2H-pyran-4-yl)sulfamoyl)pyridin-3-ylamino)propan-2-yl)benzamide], for which the values for the 50% inhibitory concentration (IC50) (at USP30 [3] (setting [6]); in assay [1] (setting [5]); in assay [2]) were under 0.05 µM, under 0.05 µM and 500 to 1000 nM, respectively.

For `CC(C)(C)NS(=O)(=O)c1ccc(NC(=O)C2Cc3ccccc3CN2C(=O)c2ccc(F)cc2)cc1` (stereo not shown) [Compound I-22, N-(4-(N-tert-Butylsulfamoyl)phenyl)-2-(4-fluorobenzoyl)-1,2,3,4-tetrahydroisoquinoline-3-carboxamide], the activity at 1 µM on USP30 [4] fell in the range of 0 to 25%. For the same compound, the figures for the half-inhibitory concentration (IC50) (at USP30 [3] (Dundee IC50 μM (avg in vitro MS assay)); in assay [1] (setting [7]); in assay [2]) were 0.05 to 1 µM, 1 to 10 µM and over 10000 nM, respectively.

Consider `O=C(N[C@@H](Cc1ccccc1)C(=O)Nc1cccc2c(S(=O)(=O)NC3COC3)cccc12)C1CCCCC1` [Compound I-130, (S)-N-(1-(5-(N-oxetan-3-ylsulfamoyl)naphthalen-1-ylamino)-1-oxo-3-phenylpropan-2-yl)cyclohexanecarboxamide], for which the IC50 on USP30 [3] (setting [6]) is 0.05 to 1 µM; in assay [1] (setting [7]) it was 0.05 to 1 µM; in assay [2], over 10000 nM.

`CC(C)(C)NS(=O)(=O)c1ccc(NC(=O)C2Cc3cnccc3CN2C(=O)c2ccc(F)cc2)cc1` (stereo not shown) [Compound I-50, N-(4-(N-tert-butylsulfamoyl)phenyl)-2-(4-fluorobenzoyl)-1,2,3,4-tetrahydro-2,6-naphthyridine-3-carboxamide]: the activity at 1 µM at USP30 [4] fell in the range of 50 to 75%. Also, the IC50 (on USP30 [3] (setting [6]); in assay [1] (setting [7])) was 1 to 10 µM in each case.

On to `O=C(N[C@@H](Cc1ccccc1)C(=O)Nc1ccc(S(=O)(=O)NC2COC2)cc1)c1ccc(F)cc1` [Compound I-64, (S)-4-fluoro-N-(1-(4-(N-oxetan-3-ylsulfamoyl)phenylamino)-1-oxo-3-phenylpropan-2-yl)benzamide], for which the activity at 1 µM on USP30 [4] lay within 0 to 25%. Further, the IC50 at USP30 [3] (setting [6]) is under 0.05 µM; in assay [1] (setting [7]), 0.05 to 1 µM.

`O=C(N[C@@H](Cc1ccccc1)C(=O)Nc1ccc(S(=O)(=O)NC23CC(C2)C3)cc1)c1ccc(F)cc1` [Compound I-11, (S)-N-(1-(4-(N-Bicyclo[1.1.1]pentan-1-ylsulfamoyl)phenylamino)-1-oxo-3-phenylpropan-2-yl)-4-fluorobenzamide]: the IC50 was < 0.05 µM and 0.05 to 1 µM at USP30 [3] (setting [6]); 0.05 to 1 µM in assay [1] (setting [7]); 0.05 to 1 µM in assay [1] (setting [5]); at most 500 nM in assay [2].

As for `O=C(N[C@@H](Cc1ccccc1)C(=O)Nc1ccc(S(=O)(=O)NC2CCOCC2)cc1)c1ccc(F)cc1` [Compound I-34, (S)-4-fluoro-N-(1-oxo-3-phenyl-1-(4-(N-(tetrahydro-2H-pyran-4-yl)sulfamoyl)phenylamino)propan-2-yl)benzamide], the half-maximal inhibitory concentration (IC50) at USP30 [3] (setting [6]) was under 0.05 µM; in assay [1] (setting [5]) it was under 0.05 µM; in assay [2], at most 500 nM.

With `Cc1cc(S(=O)(=O)NC(C)(C)C)ccc1NC(=O)[C@H](Cc1ccccc1)NC(=O)c1ccc(F)cc1` [Compound I-93, (S)-N-(1-(4-(N-tert-butylsulfamoyl)-2-methylphenylamino)-1-oxo-3-phenylpropan-2-yl)-4-fluorobenzamide], the IC50 at USP30 [3] (setting [6]) is 0.05 to 1 µM; in assay [1] (setting [5]), under 0.05 µM; in assay [2], 500 to 1000 nM.

As for `O=C(N[C@@H](Cc1ccccc1)C(=O)Nc1ccc(S(=O)(=O)NC2CCCC2)cc1)c1cccnc1` [Compound I-80, (S)-N-(1-(4-(N-cyclopentylsulfamoyl)phenylamino)-1-oxo-3-phenylpropan-2-yl)nicotinamide], the IC50 was 0.05 to 1 µM on USP30 [3] (setting [6]), 0.05 to 1 µM in assay [1] (setting [7]) and 1000 to 10000 nM in assay [2].

As to `CCNS(=O)(=O)c1ccc(NC(=O)[C@H](Cc2ccccc2)N(C)C(=O)c2ccc(F)cc2)cc1` [Compound I-51, (S)-N-(1-(4-(N-ethylsulfamoyl)phenylamino)-1-oxo-3-phenylpropan-2-yl)-4-fluoro-N-methylbenzamide], the activity at 1 µM on USP30 [4] is over 75%. Also, the IC50 (at USP30 [3] (setting [6]); in assay [1] (setting [7])) was 1 to 10 µM in each case.

Regarding `CC(C)(CO)NS(=O)(=O)c1ccc(NC(=O)[C@H](Cc2ccccc2)NC(=O)c2ccc(F)cc2)cc1` [Compound I-137, (S)-4-fluoro-N-(1-(4-(N-(1-hydroxy-2-methylpropan-2-yl)sulfamoyl)phenylamino)-1-oxo-3-phenylpropan-2-yl)benzamide], the IC50 on USP30 [3] (setting [6]) is under 0.05 µM; in assay [1] (setting [5]) it was under 0.05 µM; in assay [2] it was at most 500 nM.
